Measurements taken from patent US10934280B2, “Condensed thiophene derivatives useful as NaPi-IIb inhibitors” (Eli Lilly and Company, priority 2016, dated 2021).
Counter-ions that a name gives are not always drawn.

How the values were obtained:
NaPi-IIb = biological target: T1, NaPi-IIb (Mus musculus, UniProt Q9DBP0); assay: Inhibition of NaPi-IIb in vivo: plasma counts after oral radioactive phosphate in mice
T1 construct: from tissue; host or cells: living C57Bl6 mice (gastrointestinal tract)
T1 sequence (Q9DBP0 1-697): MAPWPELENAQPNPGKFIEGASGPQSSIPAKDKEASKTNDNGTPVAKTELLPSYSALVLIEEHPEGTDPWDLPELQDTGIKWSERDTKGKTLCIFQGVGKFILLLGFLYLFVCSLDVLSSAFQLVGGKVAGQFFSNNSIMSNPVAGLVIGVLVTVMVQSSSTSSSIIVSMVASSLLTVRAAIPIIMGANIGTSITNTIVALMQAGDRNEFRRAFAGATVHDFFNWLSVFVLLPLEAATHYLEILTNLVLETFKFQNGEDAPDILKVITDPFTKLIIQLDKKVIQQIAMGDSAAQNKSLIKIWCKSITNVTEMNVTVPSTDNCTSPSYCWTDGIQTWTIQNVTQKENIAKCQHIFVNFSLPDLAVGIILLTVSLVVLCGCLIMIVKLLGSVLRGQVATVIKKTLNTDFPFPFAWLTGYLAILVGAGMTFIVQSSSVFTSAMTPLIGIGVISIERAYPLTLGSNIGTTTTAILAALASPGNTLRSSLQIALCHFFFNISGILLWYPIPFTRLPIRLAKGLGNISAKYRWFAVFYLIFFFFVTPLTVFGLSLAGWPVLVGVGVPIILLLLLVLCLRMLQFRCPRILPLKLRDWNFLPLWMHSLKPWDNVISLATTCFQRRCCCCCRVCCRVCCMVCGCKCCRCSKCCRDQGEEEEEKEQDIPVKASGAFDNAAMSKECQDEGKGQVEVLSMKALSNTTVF
Procedure: For test article and vehicle control preparation, add vehicle, 20% hydroxypropyl-beta-cyclodextrin (HPBCD) in water, to the test article. Sonicate to reduce particle size in an ultrasonic water bath as needed. If necessary, use a polytron to break down any visible particles in test article solution. The pH of the vehicle control is adjusted to 8.0 to 8.5 with 1N NaOH.
Radioactive phosphate preparation: Prepare a 16.25 mM Na2HPO4 solution using 0.9% saline as the vehicle. Mix until a clear solution is formed. Adjust pH to approximately 7.4. Filter using a sterile 0.2 μm polyethersulfone membrane. For the final preparation of the radioactive phosphate dosing solution, add 0.5 μl of stock H3^3PO4 per 1 mL of Na2HPO4. Mix thoroughly then sterile filter the H3^33PO4+Na2HPO4 solution using a 0.2 μm polyethersulfone membrane prior to dosing. Measure the radioactivity of each sample with the scintillation counter. If the DPMs are between 100,000 and 150,000 proceed with dosing.
In-vivo protocol: Male C57B16 male mice at the age of about 8-9 wks old are fasted for 16 hrs the day before the study. They are assigned to treatment groups based on body weight on the day of study. Mice are dosed orally with either the test article, prepared as described above, or vehicle control at a 10 mis/kg dose volume. Fifteen minutes later, the radioactive phosphate dosing solution is given by oral gavage. Fifteen minutes later, blood is collected by orbital bleed. Plasma is prepared and 50 μl of EDTA plasma from each mouse is mixed with 10 ml of scintillation fluid and the counts determined by scintillation counting. The effect of the test article is determined by comparing the counts in the plasma from the test article treated animals to counts in the plasma of the vehicle control treated animals [Percent Inhibition=[…]]. Percent inhibition is measured at 30 minutes post administration of the compound or vehicle, and at 15 minutes post administration of the labelled phosphate. Percent Inhibition for indicated Examples are illustrated in Table 3 below.
Alternative vehicles, for example poly-1-vinylpyrrolidone-co-vinyl acetate (PVP-VA), at varying concentrations, may be used. Example 1 can be assayed in PVP-VA, and for this study the compound is formulated as described in the solid dispersion preparation of Example 1, followed by dissolving in water then dosing by oral gavage. The vehicle control is water with varying concentrations of PVP-VA, matching the concentration found in the highest dose of Example 1, the lowest dose of Example 1, and an intermediate dose of Example 1. No effect of varying PVP-VA on the uptake of radiolabeled phosphate is observed over several studies, and thus all the vehicles are averaged to calculate percent inhibition.

normal rats = assay: Four-day in vivo tolerability/toxicity in normal rats; settings: administered in vivo to normal rats for four days
Text: Compounds of the invention, for instance Example 1, show advantageous pharmacological properties, such as potency, in vivo distribution, in vivo efficacy, and favorable lack of toxicity in preclinical testing.

gastric emptying = assay: Effect on gastric emptying in vivo (radiolabeled phosphate recovered from stomach); set-up: species or system mice
Procedure: The effect of a test compound on gastric emptying can be assessed by dosing the compound and radiolabeled phosphate in a manner similar to that used to assess a compound's ability to inhibit NaPi-IIb in vivo. After bleeding the mice, they were sacrificed and their stomachs harvested. The harvested stomachs are digested in 10 ml of 1N NaOH overnight, and the recovered radiolabeled phosphate DPMs determined by scintillation counting. The compound mediated effect on the rate of gastric emptying is determined by comparing the dpms in the stomach of animals treated with compound, to that of animals treated with vehicle.

murine NaPi-IIb = biological target: T2, murine NaPi-IIb (Mus musculus, UniProt Q9DBP0); assay: Inhibition of 33P uptake in mouse NaPi-IIb T-REX-CHO stable cell line; format: cell-based; settings: 60 min at RT, geometric mean (SD), read-out: m NaPi-IIb rel IC50 (nM), (SD)
T2 construct: expressed in transfected cells
T2 sequence (Q9DBP0 1-697): T1 sequence (Q9DBP0 1-697)
Procedure: Inhibition of ^33P uptake is measured in human and mouse NaPi-IIb T-REX™-CHO stable cell lines. cDNA for NaPi-IIb is subcloned in plasmid SLC34A2 pcDNA5/TO (human) and SLC34A2 pcDNA5/TO (mouse) and stable cell lines are generated from clonal isolation for both human and mouse respectively. Mouse and human stable lines are maintained in continuous culture in growth media (Dulbecco's Modified Eagle Medium: Nutrient Mixture F-12 (3:1), 10% Heat Inactivated FBS, 1% penicillin/streptomycin/FUNGIEZONE® (HYCLONE™), 20 mM HEPES, 250 μg/mL hygromycin, 5 μg/mL blasticidin). Cells are harvested from T225 cell culture flasks (CORNING®) using 0.25% Trypsin, and plated in 96 well CYTOSTAR-T™ scintillating microplates (Amersham Systems) at 40,000 cells/well in 100 μL of growth media plus 100 ng/mL of tetracycline. Cell plates are incubated overnight at 37° C. and 5% C02. The next day, compounds are serially diluted using one to three dilutions in 100% DMSO. Cell plates may remain in the incubator until ready to be assayed. A cell plate is removed from the incubator and media removed. Cells are washed 3 times with 200 μL assay buffer (137 mM NaCl, 5.4 mM KCl, 2.8 mM CaCl2), 1.2 mM MgSO4, and 14 mM Tris-HCl buffer, pH˜7.5), removing buffer in between washes. Serially diluted compounds in DMSO are further diluted 50 fold in assay buffer and 50 μL added to the CYTOSTAR-T™ assay plate, immediately followed by the addition of 50 μL of ^33P solution (PERKIN-ELMER®, Walton, Mass.; 0.05 μCi/50 μL). CYTOSTAR-T™ assay plates are covered with foil to protect from light and incubated for 60 min at RT. After the 60 min incubation, 100 μL of a stop solution (assay buffer+400 μM Phloretin) is added to the assay plate to stop ^33P uptake. The plate is immediately read on a Wallac MICROBETA® Trilux liquid scintillation counter and luminometer after stop solution is added with 1 minute count per well. Each plate may be processed separately and staggered in time so there may be no delay in counting after stop solution is added. Percent inhibition at all concentrations tested (final assay concentrations 100-0.005 μM) are calculated relative to 1% DMSO (minimum effect), and the effect of 100 μM of a fully efficacious NaPi-IIb inhibitor (maximum effect). IC50 values were calculated using a 4 parameter logistic curve fitting equation. The numbers presented are the geometric means with standard deviation (SD) calculated where n is the number of runs. Thus. Table 1 describes the relative IC50 values for Examples 1-28 against human NaPi-IIb and murine NaPi-IIb, respectively.

[1] = 5 mg/kg oral, 20% HPBCD vehicle, fasted male mice, 30 min post compound, 15 min post labelled phosphate

Compound: CC1(C)CN(C(=O)NCCCCO)CCN1Cc1cccc(C(=O)Nc2sc3c(c2C(=O)Nc2cc(F)c(CCc4ccc(C(=O)O)cc4)c(F)c2)CCCC3)c1 [Example 1, 4-[2-[2,6-difluoro-4-[[2-[[3-[[4-(4-hydroxybutylcarbamoyl)-2,2-dimethyl-piperazin-1-yl]methyl]benzoyl]amino]-4,5,6,7-tetrahydrobenzothiophene-3-carbonyl]amino]phenyl]ethyl]benzoic Acid]
- Percent Inhibition (NaPi-IIb; 0.03 mg/kg oral gavage, PVP-VA solid dispersion formulation in water, mice): 0.75%
- Percent Inhibition (NaPi-IIb; 0.1 mg/kg oral gavage, PVP-VA solid dispersion formulation in water, mice): 30.61%
- Percent Inhibition (NaPi-IIb; 0.3 mg/kg oral gavage, PVP-VA solid dispersion formulation in water, mice): 51.21%
- Percent Inhibition (NaPi-IIb; 1 mg/kg oral gavage, PVP-VA solid dispersion formulation in water, mice): 66.90%
- Percent Inhibition (NaPi-IIb; 3 mg/kg oral gavage, PVP-VA solid dispersion formulation in water, mice): 68.71%
- Percent Inhibition (NaPi-IIb; 10 mg/kg oral gavage, PVP-VA solid dispersion formulation in water, mice): 75.64%
- Percent Inhibition (NaPi-IIb; 30 mg/kg oral gavage, PVP-VA solid dispersion formulation in water, mice): 75.83%
- tolerability (normal rats): generally well tolerated
- toxicity (normal rats): advantageous lack of toxicity
- margin of NaPi-IIb inhibition with respect to inhibition of in vivo gastric emptying (gastric emptying): surprisingly advantageous margin

Compound: COCCN(CCOC)S(=O)(=O)N1CCN(Cc2cccc(C(=O)Nc3sc4c(c3C(=O)Nc3cc(F)c(CCc5ccc(C(=O)O)cc5)c(F)c3)CCCC4)c2)C(C)(C)C1 [Example 3, 4-[2-[4-[[2-[[3-[[4-[bis(2-methoxyethyl)sulfamoyl]-2,2-dimethyl-piperazin-1-yl]methyl]benzoyl]amino]-4,5,6,7-tetrahydrobenzothiophene-3-carbonyl]amino]-2,6-difluoro-phenyl]ethyl]benzoic Acid]
- IC50 (murine NaPi-IIb): 40.9 nM

Compound: CC1(C)CN(CCCC(=O)O)CCN1Cc1cccc(C(=O)Nc2sc3c(c2C(=O)Nc2cc(F)c(CCc4ccc(C(=O)O)cc4)c(F)c2)CCCC3)c1 [Example 4, 4-[2-[4-[[2-[[3-[[4-(3-carboxypropyl)-2,2-dimethyl-piperazin-1-yl]methyl]benzoyl]amino]-4,5,6,7-tetrahydrobenzothiophene-3-carbonyl]amino]-2,6-difluoro-phenyl]ethyl]benzoic Acid]
- Percent Inhibition (NaPi-IIb; [1]): 52%

Compound: CC1(C)CN(C(=O)CN)CCN1Cc1cccc(C(=O)Nc2sc3c(c2C(=O)Nc2cc(F)c(CCc4ccc(C(=O)O)cc4)c(F)c2)CCCC3)c1 [Example 6, 4-[2-[4-[[2-[[3-[[4-(2-aminoacetyl)-2,2-dimethyl-piperazin-1-yl]methyl]benzoyl]amino]-4,5,6,7-tetrahydrobenzothiophene-3-carbonyl]amino]-2,6-difluoro-phenyl]ethyl]benzoic Acid]
- Percent Inhibition (NaPi-IIb; [1]): 62%

Compound: COCCCCNC(=O)N1CCN(Cc2cccc(C(=O)Nc3sc4c(c3C(=O)Nc3cc(F)c(CCc5ccc(C(=O)O)cc5)c(F)c3)CCCC4)c2)C(C)(C)C1 [Example 7, 4-[2-[2,6-difluoro-4-[[2-[[3-[[4-(4-methoxybutylcarbamoyl)-2,2-dimethyl-piperazin-1-yl]methyl]benzoyl]amino]-4,5,6,7-tetrahydrobenzothiophene-3-carbonyl]amino]phenyl]ethyl]benzoic Acid]
- IC50 (murine NaPi-IIb): 8.56 nM

Compound: CC1(C)CN(C(=O)CCC(=O)O)CCN1Cc1cccc(C(=O)Nc2sc3c(c2C(=O)Nc2cc(F)c(CCc4ccc(C(N)=O)cc4)c(F)c2)CCCC3)c1 [Example 8, 4-[4-[[3-[[3-[[4-[2-(4-carbamoylphenyl)ethyl]-3,5-difluoro-phenyl]carbamoyl]-4,5,6,7-tetrahydrobenzothiophen-2-yl]carbamoyl]phenyl]methyl]-3,3-dimethyl-piperazin-1-yl]-4-oxo-butanoic Acid]
- Percent Inhibition (NaPi-IIb; [1]): 60%

Compound: CNC(=O)N1C2CCC1CN(Cc1cccc(C(=O)Nc3sc4ccccc4c3C(=O)Nc3cc(F)c(CCc4ccc(C(=O)O)cc4)c(F)c3)c1)C2 [Example 13, 4-[2-[2,6-difluoro-4-[[2-[[3-[[8-(methylcarbamoyl)-3,8-diazabicyclo[3.2.1]octan-3-yl]methyl]benzoyl]amino]benzothiophene-3-carbonyl]amino]phenyl]ethyl]benzoic Acid, Formic Acid Salt]
- IC50 (murine NaPi-IIb): 9 nM
